From PubChem BioAssay AID220 (DTP/NCI, 2004) come the findings set out here.

Structures are written as SMILES. Several values for one entry are separate records, joined by “and”; a condition that tells them apart may be missing. Equal entries are not always repeated. Inconclusive results are not listed.

The assay relates to CD8F1 mice, subcutaneous mammary adenocarcinoma, T/C%. Description: NCI In Vivo Anticancer Drug Screen. Data for tumor model Mammary Adenocarcinoma CD8F1 (subcutaneous) in CD8F1. The note with it: higher = larger tumour. Summed up: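 Antitumor activity is assessed in transplantable-tumor mice by comparing the treated group with a vehicle-treated control group. Survival or tumor size serves as the measure, reported as T divided by C.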

The mark [1] stands for this setting: endpoint: median tumor weight (est.), dose: 4.0 mg/kg/injection, schedule: Q07DX005 (ip), vehicle: saline.
[2] abbreviates: endpoint: median tumor weight (est.), dose: 8.0 mg/kg/injection, schedule: Q07DX005 (ip), vehicle: saline.
The mark [3] stands for this setting: endpoint: median tumor weight (est.), dose: 6.25 mg/kg/injection, schedule: Q07DX005 (ip), vehicle: saline with Tween-80.
The mark [4] stands for this setting: endpoint: median tumor weight (est.), dose: 12.5 mg/kg/injection, schedule: Q07DX005 (ip), vehicle: saline with Tween-80.
Where [5] appears, read: endpoint: median tumor weight (est.), dose: 50.0 mg/kg/injection, schedule: Q07DX005 (ip), vehicle: saline with Tween-80.
[6] abbreviates: endpoint: median tumor weight (est.), dose: 100.0 mg/kg/injection, schedule: Q07DX005 (ip), vehicle: saline with Tween-80.

As to `C=C(C)C(=O)OC1C/C(CO)=C\C(O)C/C(C)=C/C2OC(=O)C(=C)C21` (stereo not drawn), the T/C (endpoint: median tumor weight change, dose: 12.0 mg/kg/injection, schedule: Q01DX001 (ip), vehicle: saline + alcohol) was 86 % of control; the T/C (endpoint: median tumor weight change, dose: 25.0 mg/kg/injection, schedule: Q01DX001 (ip), vehicle: saline + alcohol) is 49 % of control; the T/C (endpoint: median tumor weight change, dose: 50.0 mg/kg/injection, schedule: Q01DX001 (ip), vehicle: saline + alcohol) was 69 % of control; the T/C (endpoint: median tumor weight change, dose: 100.0 mg/kg/injection, schedule: Q01DX001 (ip), vehicle: saline + alcohol) was 60 % of control.

`N/C(=N\O)c1cn(C2OC(CO)C(O)C2O)c2ncnc(N)c12` (stereo not drawn): the T/C runs as follows: under setting [1], 100 % of control; under setting [2], 112 % of control.

Regarding `CCNC(=O)[B-][N+](C)(C)C`, the T/C was 101 % of control (endpoint: median tumor weight change, dose: 50.0 mg/kg/injection, schedule: Q01DX001 (ip), vehicle: Klucel (hydroxypropylcellulose) (HPC)); 108 % of control (endpoint: median tumor weight change, dose: 100.0 mg/kg/injection, schedule: Q01DX001 (ip), vehicle: Klucel (hydroxypropylcellulose) (HPC)); 97 % of control (endpoint: median tumor weight change, dose: 200.0 mg/kg/injection, schedule: Q01DX001 (ip), vehicle: Klucel (hydroxypropylcellulose) (HPC)); 72 % of control (endpoint: median tumor weight change, dose: 400.0 mg/kg/injection, schedule: Q01DX001 (ip), vehicle: Klucel (hydroxypropylcellulose) (HPC)).

Regarding `CC(C)CC(=O)NC(C(=O)NC(C(=O)NC(CC(C)C)C(O)CC(=O)NC(C)C(=O)NC(CC(C)C)C(O)CC(=O)O)C(C)C)C(C)C` (stereo not drawn), under “endpoint: median tumor weight change, dose: 62.5 mg/kg/injection, schedule: Q01DX001 (ip), vehicle: Klucel (hydroxypropylcellulose) (HPC)”, the T/C was 97 % of control.

Take `CCN(CC)CC[n+]1ccc2c(C)c3[nH]c4ccc(O)cc4c3c(C)c2c1`: the T/C (endpoint: median tumor weight change, dose: 7.5 mg/kg/injection, schedule: Q01DX001 (ip), vehicle: suspension in saline) is 83 % of control; the T/C (endpoint: median tumor weight change, dose: 15.0 mg/kg/injection, schedule: Q01DX001 (ip), vehicle: suspension in saline) is 72 % of control and 75 % of control; the T/C (endpoint: median tumor weight change, dose: 15.6 mg/kg/injection, schedule: Q01DX001 (ip), vehicle: suspension in saline) was 78 % of control; the T/C (endpoint: median tumor weight change, dose: 31.0 mg/kg/injection, schedule: Q01DX001 (ip), vehicle: suspension in saline) was 57 % of control; the T/C (endpoint: median tumor weight change, dose: 60.0 mg/kg/injection, schedule: Q01DX001 (ip), vehicle: suspension in saline) is 7 % of control and 26 % of control; the T/C (endpoint: median tumor weight change, dose: 62.0 mg/kg/injection, schedule: Q01DX001 (ip), vehicle: suspension in saline) was 3 % of control.

In the case of `COC1=CC(=O)C(OC)=C(OC)C1=O`, the T/C runs as follows: under setting [3], 63 % of control; under setting [4], 106 % of control; (endpoint: median tumor weight (est.), dose: 25.0 mg/kg/injection, schedule: Q07DX005 (ip), vehicle: saline with Tween-80) 90 % of control; under setting [5], 96 % of control; under setting [6], 74 % of control.

In the case of `CN(C)CCN1C(=O)c2cccc3cc(N)cc(c23)C1=O`, the T/C is 81 % of control and 92 % of control (endpoint: median tumor weight change, dose: 10.0 mg/kg/injection, schedule: Q01DX001 (ip), vehicle: saline with Tween-80); 42 % of control and 44 % of control and 61 % of control (endpoint: median tumor weight change, dose: 40.0 mg/kg/injection, schedule: Q01DX001 (ip), vehicle: saline with Tween-80).

For `COc1cccc2c1C(=O)c1c(O)c3c(c(O)c1C2=O)C[C@@](O)(/C(C)=N/NC(=O)c1ccccc1)C[C@@H]3OC1CC(N)C(O)C(C)O1` (stereo partly drawn), the T/C is 263 % of control (endpoint: median tumor weight (est.), dose: 3.12 mg/kg/injection, schedule: Q07DX005 (ip), vehicle: water) and 82 % of control (endpoint: median tumor weight (est.), dose: 6.25 mg/kg/injection, schedule: Q07DX005 (ip), vehicle: water).

As for `NS(=O)(=O)OCCCCCCCOS(N)(=O)=O`, the T/C runs as follows: (endpoint: median tumor weight change, dose: 62.0 mg/kg/injection, schedule: Q01DX001 (ip), vehicle: saline with Tween-80) 66 % of control; (endpoint: median tumor weight change, dose: 62.5 mg/kg/injection, schedule: Q01DX001 (ip), vehicle: saline with Tween-80) 22 % of control; (endpoint: median tumor weight change, dose: 125.0 mg/kg/injection, schedule: Q01DX001 (ip), vehicle: saline with Tween-80) 33 % of control and 34 % of control; (endpoint: median tumor weight change, dose: 250.0 mg/kg/injection, schedule: Q01DX001 (ip), vehicle: saline with Tween-80) -27 % of control and -36 % of control.

For `C[C@@H]1C[C@H]2[C@@H]3CCC4=CC(=O)C=C[C@]4(C)[C@@]3(F)[C@@H](O)C[C@]2(C)[C@@]1(O)C(=O)CO`, the T/C by setting is: (endpoint: median tumor weight (est.), dose: 6.25 mg/kg/injection, schedule: Q07DX005 (ip), vehicle: Klucel (hydroxypropylcellulose) (HPC)) 88 % of control; (endpoint: median tumor weight (est.), dose: 12.5 mg/kg/injection, schedule: Q07DX005 (ip), vehicle: Klucel (hydroxypropylcellulose) (HPC)) 32 % of control; (endpoint: median tumor weight (est.), dose: 25.0 mg/kg/injection, schedule: Q07DX005 (ip), vehicle: Klucel (hydroxypropylcellulose) (HPC)) 31 % of control; (endpoint: median tumor weight (est.), dose: 50.0 mg/kg/injection, schedule: Q07DX005 (ip), vehicle: Klucel (hydroxypropylcellulose) (HPC)) 12 % of control; (endpoint: median tumor weight (est.), dose: 100.0 mg/kg/injection, schedule: Q07DX005 (ip), vehicle: Klucel (hydroxypropylcellulose) (HPC)) 7 % of control.

In the case of `CCc1nc(N)nc(N)c1-c1ccc(Cl)c(Cl)c1`, the T/C is 107 % of control (endpoint: mean tumor weight (est.), dose: 40.0 mg/kg/injection, schedule: Q07DX003 (ip), vehicle: saline with Tween-80); 100 % of control (endpoint: mean tumor weight (est.), dose: 50.0 mg/kg/injection, schedule: Q07DX003 (ip), vehicle: saline with Tween-80); 93 % of control (endpoint: mean tumor weight (est.), dose: 60.0 mg/kg/injection, schedule: Q07DX003 (ip), vehicle: saline with Tween-80); 35 % of control (endpoint: mean tumor weight (est.), dose: 60.0 mg/kg/injection, schedule: Q07DX004 (ip), vehicle: saline with Tween-80); 50 % of control (endpoint: mean tumor weight (est.), dose: 80.0 mg/kg/injection, schedule: Q07DX004 (ip), vehicle: saline with Tween-80).

As to `CN(CO)c1nc(N(C)CO)nc(N(C)CO)n1`, the T/C (endpoint: median tumor weight (est.), dose: 0.5 mg/kg/injection, schedule: Q07DX005 (ip), vehicle: saline) is 56 % of control; the T/C (endpoint: median tumor weight (est.), dose: 1.0 mg/kg/injection, schedule: Q07DX005 (ip), vehicle: saline) was 78 % of control; the T/C (endpoint: median tumor weight (est.), dose: 2.0 mg/kg/injection, schedule: Q07DX005 (ip), vehicle: saline) is 110 % of control; the T/C under setting [1] is 48 % of control; the T/C under setting [3] is 92 % of control; the T/C under setting [2] was 46 % of control. Besides, the T/C by setting is: under setting [4], 116 % of control; (endpoint: median tumor weight (est.), dose: 12.5 mg/kg/injection, schedule: Q07DX006 (ip), vehicle: saline) 288 % of control; (endpoint: median tumor weight (est.), dose: 16.0 mg/kg/injection, schedule: Q07DX005 (ip), vehicle: saline) 14 % of control; (endpoint: median tumor weight (est.), dose: 25.0 mg/kg/injection, schedule: Q07DX006 (ip), vehicle: saline) 42 % of control; under setting [5], 94 % of control; (endpoint: median tumor weight (est.), dose: 50.0 mg/kg/injection, schedule: Q07DX006 (ip), vehicle: saline) 40 % of control. Besides, the T/C is 25 % of control under setting [6]; 35 % of control (endpoint: median tumor weight (est.), dose: 100.0 mg/kg/injection, schedule: Q07DX006 (ip), vehicle: saline); 31 % of control (endpoint: median tumor weight (est.), dose: 200.0 mg/kg/injection, schedule: Q07DX005 (ip), vehicle: saline with Tween-80); 5 % of control (endpoint: median tumor weight (est.), dose: 200.0 mg/kg/injection, schedule: Q07DX006 (ip), vehicle: saline).

As to `O=c1n[n+]([O-])ccn1C1OC(CO)C(O)C1O` (stereo not drawn), the T/C (endpoint: mean tumor weight, dose: 150.0 mg/kg/injection, schedule: Q07DX006 (ip), vehicle: saline) is 175 % of control; the T/C (endpoint: mean tumor weight, dose: 150.0 mg/kg/injection, schedule: Q07DX007 (ip), vehicle: saline) is 50 % of control; the T/C (endpoint: mean tumor weight, dose: 300.0 mg/kg/injection, schedule: Q07DX006 (ip), vehicle: saline) is 90 % of control; the T/C (endpoint: mean tumor weight, dose: 300.0 mg/kg/injection, schedule: Q07DX007 (ip), vehicle: saline) is 60 % of control; the T/C (endpoint: mean tumor weight, dose: 600.0 mg/kg/injection, schedule: Q07DX006 (ip), vehicle: saline) was 33 % of control; the T/C (endpoint: mean tumor weight, dose: 600.0 mg/kg/injection, schedule: Q07DX007 (ip), vehicle: saline) is 65 % of control. Further, the T/C by setting is: (endpoint: median tumor weight (est.), dose: 50.0 mg/kg/injection, schedule: Q07DX005 (ip), vehicle: saline) 82 % of control; (endpoint: median tumor weight (est.), dose: 100.0 mg/kg/injection, schedule: Q07DX005 (ip), vehicle: saline) 93 % of control; (endpoint: median tumor weight (est.), dose: 200.0 mg/kg/injection, schedule: Q07DX005 (ip), vehicle: saline) 71 % of control; (endpoint: median tumor weight (est.), dose: 300.0 mg/kg/injection, schedule: Q07DX005 (ip), vehicle: saline) 101 % of control; (endpoint: median tumor weight (est.), dose: 600.0 mg/kg/injection, schedule: Q07DX005 (ip), vehicle: saline) 106 % of control.

Turning to `CO[C@@]12[C@@H]3N[C@@H]3CN1C1=C(C(=O)C(NCC3CCCO3)=C(C)C1=O)[C@@H]2COC(N)=O` (stereo partly drawn), the T/C (endpoint: median tumor weight change, dose: 6.25 mg/kg/injection, schedule: Q01DX001 (ip), vehicle: distilled water + Tween-80) was 44 % of control.
